# Measured values: patent US10625229B2, “Device for preparing nano-carbon urea” (BEIJING NANO HI-TECH MATERIAL CO., LTD., priority 2016, dated 2020)
# Experiments:
# corn = assay: Field experiment on application of nano-carbon urea in corn (2016, Inner Mongolia); type: in vivo, corn variety Simon 568; settings: Pure N 20 kg/a unit of area (no nitrogen reduction)
# From the text: The results of the experiment on the application of nano-carbon urea by bimeng academy of agricultural sciences in Inner Mongolia in 2016 are as follows: Nano-carbon urea is provided by the invention containing 46% nitrogen, and the amount of nano-carbon sol added is 10% of fertilizer weight, color: grey. Corn variety: Simon 568 Test site: Garden Canal Test Station of Agriculture and Animal Husbandry Science Research Institute, Bayannur City Random plot arrangement, 5 treatments, four repeats, […], mulch planting.
# soybean = assay: Soybean potted test of nano urea (Heilongjiang); type: in vivo; settings: urea 10.8 g per pot (full dosage), 3 plants per pot
# From the text: Soybean Experiment in Heilongjiang Agricultural Academy Test site: Heilongjiang Academy of Agricultural Sciences Laboratory Entrusted unit: Plant Nutrition and Environment Institute of Heilongjiang Agricultural Academy To determine the application effect and nitrogen utilization rate of nano-fertilizer on soybean and rice. Nano urea (46-0-0), calcium superphosphate (0-43-0), potassium sulfate (0-0-0-50), nano carbon sol content 0.57% solute, added amount is 10% of urea weight. Soybeans Potted Test There 3 plants per pot, repeat 6 times. N:P:K rating is 5:3.5:3, the results are as follows: […]
compound,measurement,setting,value
"NC(N)=O [Common urea, urea]",Yield kg/a unit of area,corn,1002.98 kg/a unit of area
same,Average yield g/pot,soybean,50 g/pot
